In patent US20250140406A1, “CLASSIFYING TUMORS AND PREDICTING RESPONSIVENESS” (Oncocyte Corporation, priority 2022, published 2025):

Tests used:
[1] = system: NSCLC cell lines (xenograft models); conditions: of the 10 NSCLC cell lines, GSE109302; cited from earlier work
[2] = system: Representative Cell Lines of TNBC tumor subtypes; conditions: TNBC subtypes from Lehmann et al.; cited from earlier work
[3] = system: cancer cell lines classified IM, MSL, M; experiment: Cancer Therapeutics Response Portal (CTRP) small-molecule sensitivity correlated with IM, MSL and M subtype; format: cell-based; conditions: CTRP and PRISM screens; IM class by 101 gene signature
Experimental: Compound correlations where the correlation was negative, indicating sensitivity to the compound, and with a q value less than 0.05 were assessed.

[4] = system: cancer cell lines classified IM, MSL, M; experiment: PRISM screen compound sensitivity correlated with IM, MSL and M subtype of cell lines (101 gene signature); format: cell-based; conditions: test cell set (188 cell lines)
cancer cell lines = experiment: Correlation of gene expression with PRISM compound sensitivity across cell lines (gene:compound correlate pairs); format: cell-based; parameters: key: Pearson correlation of gene expression with compound sensitivity; conditions: for compound gene test corr: test cell lines; for compound gene train corr: training cell lines
Experimental: This list of genes (based upon gene expression and gene dependency) was analyzed by Pearson correlation with the compound sensitivity data across the training cell lines. Correlation values, p values, q values and local false discovery rates were calculated. This analysis was repeated using the same set of compounds and genes on the test set of cell lines.
A negative correlation means that the importance of the expression of that gene to cell health was linked to increased compound sensitivity. • compound gene dep train pvalue: Measure of significance for this association. • compound gene dep test corr: Correlation of gene dependency with compound sensitivity in the test data set. • TNBCType train: Classification of association of the compound sensitivity with the IM, MSL and M cell line classes in the training data set. • DTIO Corr train: Association of the compound sensitivity with the DetermaIO cell line classes in the training data set. • TNBCType test: Classification of the association of the compound sensitivity with the IM, MSL and M cell line classes in the test data set. • DTIO Corr test: Association of the compound sensitivity with the DetermaIO cell line classes in the test data set.

[5] = system: cancer cell lines, DetermaIO classes; experiment: Association of PRISM compound sensitivity with DetermaIO (DTIO) cell line classes; format: cell-based

Structure (SMILES): COc1cc(C(=O)NC2CCN(C)CC2)c(F)cc1Nc1ncc(C(F)(F)F)c(Oc2cccc3c2C(=O)N(C)C3)n1 [BI 853520]
- Number of NSCLC cell lines resistant to the drug [1]: five
- Number of NSCLC cell lines sensitive to the drug [1]: five

Structure (SMILES): CC(O)(CS(=O)(=O)c1ccc(F)cc1)C(=O)Nc1ccc(C#N)c(C(F)(F)F)c1 (centres unmarked) [Bicalutimide]
- Tumor subtype whose representative cell lines respond to the treatment [2]: LAR

Structure (SMILES): N.N.[Cl][Pt][Cl] [Cisplatin]
- Tumor subtype whose representative cell lines respond to the treatment [2]: BL1 and BL2

Structure (SMILES): Cc1nc(Nc2ncc(C(=O)Nc3c(C)cccc3Cl)s2)cc(N2CCN(CCO)CC2)n1 [Dasantinib]
- Tumor subtype whose representative cell lines respond to the treatment [2]: M and MSL

Structure (SMILES): Cn1c(=O)n(-c2ccc(C(C)(C)C#N)cc2)c2c3cc(-c4cnc5ccccc5c4)ccc3ncc21 [NVP-BEX235]
- Tumor subtype whose representative cell lines respond to the treatment [2]: M and MSL

Structure (SMILES): C=CC(=O)Nc1cc2c(Nc3ccc(F)c(Cl)c3)ncnc2cc1OCCCN1CCOCC1 [canertinib]
- Sensitivity of tumors of the IM class to the compound [3]: especially sensitive

Structure (SMILES): CS(=O)(=O)CCNCc1ccc(-c2ccc3ncnc(Nc4ccc(OCc5cccc(F)c5)c(Cl)c4)c3c2)o1 [lapatinib]
- Sensitivity of tumors of the IM class to the compound [3]: especially sensitive

Structure (SMILES): CC1(S(=O)(=O)[O-])CC(=O)c2ccccc2C1=O.[Na+] (centres unmarked) [menadione-bisulfite]
- IM Corr test ([4]; correlation of PRISM compound sensitivity with IM subtype correlation): 0.1925
- M Corr test ([4]; correlation of PRISM compound sensitivity with M subtype correlation): −0.2026
- MSL Corr test ([4]; correlation of PRISM compound sensitivity with MSL subtype correlation): −0.1086
- compound gene test corr (cancer cell lines; gene CHL1): −0.2459
- compound gene train corr (cancer cell lines; gene CHL1): −0.1641
- compound gene test corr (cancer cell lines; gene COL19A1): −0.2615
- compound gene train corr (cancer cell lines; gene COL19A1): −0.2071
- compound gene test corr (cancer cell lines; gene DSTYK): −0.2853
- compound gene train corr (cancer cell lines; gene DSTYK): −0.1942
- compound gene test corr (cancer cell lines; gene FCGR2A): −0.2554
- compound gene train corr (cancer cell lines; gene FCGR2A): −0.1722
- compound gene test corr (cancer cell lines; gene FCRLA): −0.2647
- compound gene train corr (cancer cell lines; gene FCRLA): −0.2401
- compound gene test corr (cancer cell lines; gene GHR): −0.2974
- compound gene train corr (cancer cell lines; gene GHR): −0.1701
- compound gene test corr (cancer cell lines; gene LUM): −0.3259
- compound gene train corr (cancer cell lines; gene LUM): −0.1958
- compound gene test corr (cancer cell lines; gene LZTS1): −0.3133
- compound gene train corr (cancer cell lines; gene LZTS1): −0.1907
- compound gene test corr (cancer cell lines; gene NCKAP5L): −0.3161
- compound gene train corr (cancer cell lines; gene NCKAP5L): −0.1648
- compound gene test corr (cancer cell lines; gene P2RX7): −0.2585
- compound gene train corr (cancer cell lines; gene P2RX7): −0.2054
- compound gene test corr (cancer cell lines; gene PLEKHO1): −0.2511
- compound gene train corr (cancer cell lines; gene PLEKHO1): −0.1601
- compound gene test corr (cancer cell lines; gene PLEKHO2): −0.3003
- compound gene train corr (cancer cell lines; gene PLEKHO2): −0.2127
- compound gene test corr (cancer cell lines; gene PLP1): −0.2422
- compound gene train corr (cancer cell lines; gene PLP1): −0.2332
- compound gene test corr (cancer cell lines; gene PLPP7): −0.2843
- compound gene train corr (cancer cell lines; gene PLPP7): −0.1831
- compound gene test corr (cancer cell lines; gene QKI): −0.2736
- compound gene train corr (cancer cell lines; gene QKI): −0.2164
- compound gene test corr (cancer cell lines; gene SYNM): −0.2591
- compound gene train corr (cancer cell lines; gene SYNM): −0.1742
- compound gene test corr (cancer cell lines; gene TAMALIN): −0.254
- compound gene train corr (cancer cell lines; gene TAMALIN): −0.1641
- compound gene test corr (cancer cell lines; gene WWTR1): −0.2508
- compound gene train corr (cancer cell lines; gene WWTR1): −0.1794
- compound gene test corr (cancer cell lines; gene ZCCHC24): −0.3161
- compound gene train corr (cancer cell lines; gene ZCCHC24): −0.1708
- DTIO Corr test ([5]; correlation of PRISM compound sensitivity with DTIO, test cell set): 0.1362
- DTIO Corr train ([5]; correlation of PRISM compound sensitivity with DTIO, training cell set): 0.003549
- DTIO Corr test ([5]; test set): 0.1362
- DTIO Corr train ([5]; training set): 0.003549
